This note sets out measurements from PubChem BioAssay (NCI).

Values joined by “and” are separate entries in the source; they are usually repeats but may differ in a detail not shown here. Equal entries are not always repeated.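 Where inhibition never reached the appropriate level, the endpoint shown equals the highest concentration tested. Otherwise, values were interpolated linearly from a five-concentration, 48-hour dose response in 96-well plates. GI50 is the concentration that inhibits growth by half. TGI marks complete inhibition of growth.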 Where a SMILES comes first, the peptide text is derived from it. [ ]: non-standard residue; d: D form. Phe(4-Cl) = N[CH](Cc1ccc(Cl)cc1)C(=O)O

Some test systems named below: DLD-1 colon; DMS 273 small cell lung; KM20L2 colon; LXFL 529 NSCLC; M19-MEL melanoma; XF 498 CNS; MCF7 breast; MDA-MB-231 breast; NCI/ADR-RES ovarian; T-47D breast.
What all share (assay): NCI tumour cell line growth inhibition, 48 h

Take `COC(=O)c1cc(Br)c(Br)n1C`: the TGI with DLD-1 colon, with DMS 273 small cell lung, in the experiment on KM20L2 colon, in the experiment on LXFL 529 NSCLC, in the experiment with M19-MEL melanoma and in the experiment on XF 498 CNS was greater than 100 µM each time.

Turning to `C=CCCCCCCCCC(=O)NS(=O)(=O)c1ccccc1`, the TGI in the experiment on DLD-1 colon, with DMS 273 small cell lung, in the experiment on KM20L2 colon, with LXFL 529 NSCLC, with M19-MEL melanoma and in the experiment on XF 498 CNS was greater than 100 µM in each case.

In the case of `N.N.N.N.N.O=C([O-])c1nn[n-]n1.[Cl-].[Co+3]`, the GI50 in the experiment with DLD-1 colon, with DMS 273 small cell lung, in the experiment on KM20L2 colon and with LXFL 529 NSCLC was greater than 100 µM each time. Moreover, the TGI in the experiment on DLD-1 colon, with DMS 273 small cell lung, with KM20L2 colon and with LXFL 529 NSCLC was greater than 100 µM in each case.

As to `NC1=NN(c2ccccc2)C(=O)C1C(=O)CCC(=O)Nc1cccc(C(F)(F)F)c1` (centres undefined), the TGI in the experiment with DLD-1 colon, in the experiment on DMS 273 small cell lung, with KM20L2 colon, in the experiment on LXFL 529 NSCLC and with M19-MEL melanoma was greater than 100 µM throughout.

For `Cc1noc(C)c1CCCOC1COc2ccccc2OCCOCCOc2ccccc2OC1`, the TGI in the experiment with DLD-1 colon, in the experiment with DMS 273 small cell lung, in the experiment with KM20L2 colon, in the experiment on LXFL 529 NSCLC, in the experiment on M19-MEL melanoma and with XF 498 CNS was greater than 100 µM throughout.

In the case of `COc1ccc(-c2cn3ccsc3n2)cc1`, the TGI with DLD-1 colon, in the experiment on DMS 273 small cell lung, with KM20L2 colon, in the experiment with LXFL 529 NSCLC and in the experiment on M19-MEL melanoma was greater than 100 µM each time.

Regarding `O=c1cccccc1NCCCNc1cccccc1=O`, the TGI in the experiment on DMS 273 small cell lung, in the experiment on KM20L2 colon, with LXFL 529 NSCLC, with M19-MEL melanoma and in the experiment on XF 498 CNS was greater than 100 µM each time.

For `Nc1ccc(/C=C/c2ccnc3ccccc23)cc1`, the TGI is greater than 100 µM in the experiment on DLD-1 colon; 48.9 µM with DMS 273 small cell lung; 46.6 µM with KM20L2 colon; 58.7 µM in the experiment on LXFL 529 NSCLC; 90 µM with M19-MEL melanoma.

Take `Cc1ccc(S(=O)(=O)n2c(-c3ccccc3)c(-c3ccccc3)c3ccccc32)cc1`: the TGI with DLD-1 colon, in the experiment on DMS 273 small cell lung, with KM20L2 colon, with LXFL 529 NSCLC, with M19-MEL melanoma and in the experiment with XF 498 CNS was greater than 100 µM each time.

Consider `COc1ccc(C(C)c2cc3c(cc2OC)OCO3)cc1` (centres undefined), for which the TGI with DLD-1 colon was greater than 100 µM; in the experiment with DMS 273 small cell lung it was 1.29 µM; in the experiment on KM20L2 colon, 0.533 µM; with LXFL 529 NSCLC it was greater than 42.7 µM; with M19-MEL melanoma, greater than 100 µM; with MCF7 breast, 40.6 µM. The TGI in the experiment with MDA-MB-231 breast was 4.6 µM; in the experiment with NCI/ADR-RES ovarian, 28.2 µM; in the experiment on T-47D breast, greater than 100 µM.

In the case of `COc1cc(OC(=O)c2c(O)cc(O)c(O)c2C)cc(C)c1C(=O)Oc1cc(C)c(C(=O)O)c(O)c1`, the TGI with DLD-1 colon, in the experiment on DMS 273 small cell lung, in the experiment with KM20L2 colon, in the experiment on LXFL 529 NSCLC, in the experiment with M19-MEL melanoma and with XF 498 CNS was greater than 100 µM each time.

Turning to `COc1c2c(cc3nc4ccccc4nc13)CCC(C(C)(C)O)C2` (centres undefined), the TGI in the experiment with DLD-1 colon, in the experiment with DMS 273 small cell lung, in the experiment with KM20L2 colon, in the experiment on LXFL 529 NSCLC, in the experiment with M19-MEL melanoma and with XF 498 CNS was greater than 100 µM in each case.

In the case of `N#Cc1nc(C2OC(COC(=O)c3ccccc3)C(OC(=O)c3ccccc3)C2OC(=O)c2ccccc2)oc1N` (centres undefined), the TGI with DLD-1 colon, in the experiment with DMS 273 small cell lung, in the experiment with KM20L2 colon and in the experiment on M19-MEL melanoma was greater than 100 µM throughout.

As to `CCS(=O)(=O)c1ccc(OC)c(Nc2ncc(-c3cccc(C(C)=O)c3)o2)c1`, the GI50 is greater than 25 µM in the experiment with MCF7 breast, 7.73 µM in the experiment on MDA-MB-231 breast, greater than 25 µM with NCI/ADR-RES ovarian and 16.7 µM with T-47D breast. In addition, the TGI in the experiment with MCF7 breast, in the experiment on MDA-MB-231 breast, in the experiment on NCI/ADR-RES ovarian and in the experiment with T-47D breast was greater than 25 µM throughout.

Regarding `CC(=O)OC[C@]12CC[C@H]3[C@@H](C[C@H]4O[C@]45[C@@H](O)C=CC(=O)[C@]35C)[C@@H]1CC[C@@H]2[C@H](C)[C@H]1CC(C)=C(C)C(=O)O1`, the GI50 with DLD-1 colon is 0.273 µM and 0.129 µM; with DMS 273 small cell lung, 0.605 µM and 0.42 µM; in the experiment with KM20L2 colon, 0.512 µM and 0.407 µM; with LXFL 529 NSCLC, 0.347 µM and 0.219 µM; in the experiment on M19-MEL melanoma, 0.598 µM and 0.515 µM; with XF 498 CNS, 0.422 µM and 0.234 µM. The TGI in the experiment on DLD-1 colon was 0.649 µM and 0.31 µM; in the experiment with DMS 273 small cell lung, 1.51 µM; in the experiment on KM20L2 colon it was 0.829 µM and 1.44 µM; in the experiment with LXFL 529 NSCLC, 0.824 µM; with M19-MEL melanoma it was 2.32 µM; with XF 498 CNS, 0.799 µM and 0.581 µM.

With `CC(O)C(NC(=O)C(Cc1ccccc1)NC(=O)C(NC(=O)C(CCCCN)NC(=O)C(Cc1c[nH]c2ccccc12)NC(=O)C(Cc1ccc(O)cc1)NC(=O)C(Cc1ccc(Cl)cc1)NC(=O)C(N)Cc1ccccc1)C(C)O)C(N)=O` (centres undefined) (H-F[Phe(4-Cl)]YWKTFT-NH2; configuration not given here), the TGI with DLD-1 colon is 59.5 µM; in the experiment with DMS 273 small cell lung, greater than 100 µM; with KM20L2 colon, 48.7 µM; in the experiment on LXFL 529 NSCLC it was 39.4 µM; in the experiment on M19-MEL melanoma, 40.2 µM; in the experiment with XF 498 CNS it was 28.9 µM.

As to `CC(C)c1ccc(C(=O)Nc2sc3c(c2C(N)=O)CCC(=O)C3)cc1`, the GI50 in the experiment on MCF7 breast was 0.466 µM; in the experiment on MDA-MB-231 breast it was 0.788 µM; in the experiment with NCI/ADR-RES ovarian, 0.975 µM; with T-47D breast it was 0.312 µM. In addition, the TGI with MCF7 breast was determined as 5.16 µM; in the experiment on MDA-MB-231 breast, 2.43 µM; in the experiment on NCI/ADR-RES ovarian, 5.57 µM; with T-47D breast, 2.1 µM.

With `COc1cc2oc(-c3ccc(O)cc3)cc(=O)c2c(OC)c1OC`, the TGI in the experiment on MCF7 breast, with MDA-MB-231 breast, in the experiment with NCI/ADR-RES ovarian and in the experiment with T-47D breast was greater than 100 µM in each case.

Turning to `COC(=O)C(=O)C(C(=O)C(=O)Nc1ccccc1C(N)=O)c1nc2ccc(Cl)cc2[nH]c1=O` (centres undefined), the TGI with MCF7 breast, in the experiment with MDA-MB-231 breast, in the experiment on NCI/ADR-RES ovarian and in the experiment on T-47D breast was greater than 100 µM throughout.
